Measured values from patent publication US6884593B1, “Method of identifying properties of substance with respect to human prostaglandin D2 receptors” (BML, Inc., priority 1999, dated 2005).

How the values were obtained:
DP receptor [1] = target: T1, DP receptor (Homo sapiens, UniProt Q13258); assay: [^3H]PGD2 binding assay, cells expressing DP receptor (KD36); conditions: [^3H]PGD2 binding in the presence of unlabeled prostanoids, KD36, FIG. 3
T1 construct: the coding region of the human DP receptor was amplified through PCR; expressed in transfected cells; cDNA from human small intestine poly(A)+ RNA
T1 sequence (Q13258 1-359): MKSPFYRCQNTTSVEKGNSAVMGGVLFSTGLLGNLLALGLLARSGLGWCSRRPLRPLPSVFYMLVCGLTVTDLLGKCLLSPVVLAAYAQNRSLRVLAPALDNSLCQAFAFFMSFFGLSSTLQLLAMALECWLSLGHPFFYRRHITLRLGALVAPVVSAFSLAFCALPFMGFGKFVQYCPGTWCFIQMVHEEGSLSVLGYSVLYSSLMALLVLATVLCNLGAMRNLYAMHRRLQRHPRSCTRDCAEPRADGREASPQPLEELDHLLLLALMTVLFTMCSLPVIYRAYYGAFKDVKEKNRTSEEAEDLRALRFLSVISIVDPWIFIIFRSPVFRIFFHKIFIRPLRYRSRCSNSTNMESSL
Description: Human DP receptor cDNA was cloned through RT-PCR on the basis of the nucleotide sequence of human DP receptor cDNA described in Boie, Y. et al., J. Biol. Chem., 270: 18910-18916, 1995 and Japanese Kohyo (PCT) Patent Publication No. 10-507930. Specifically, the cDNA was prepared by use, as an template, of poly(A)+RNA (product of Clonetech) of the human small intestine in which the human DP receptor is highly expressed, and by use of oligo (dT) primer (product of Pharmacia) and MMLV reverse transcriptase (product of Pharmacia). Subsequently, the coding region of the human DP receptor was amplified through PCR (35 heat cycles, each cycle consisting of heating at 94° C. for 1 minute, at 68° C. for 1 minute, and at 72° C. for 1 minute) by use of a forward primer (5′-[…]: SEQ No. 1) containing a restriction enzyme HindIII site, and a reverse primer (5′-[…]: SEQ No. 2) containing an XbaI site. The resultant PCR product was digested with HindIII and XbaI, and subcloned into the HindIII/XbaI site of pRc/CMV. The thus-prepared human DP receptor expression plasmid was introduced into a K562 cell in a manner similar to that described in Example 1, and subjected to selection by use of geneticin and to cloning. The proliferated clones were subjected to the below-described [^3H]PGD2 binding assay, to thereby obtain clone KD36 in which the DP receptor is highly expressed.
(§1) Each of KB8 cells, KD36 cells, and K562/neo cells was resuspended in Hank's balanced salt solution (HBSS, product of Gibco BRL) so as to attain a concentration of 3×10^7 cells/ml. The resultant suspension (0.1 ml) was placed in a 0.5-ml microtube, and then cooled on ice. Subsequently, 1 nM of [^3H]PGD2 (product of Amersham) which had been diluted with HBSS was added to the suspension, to thereby allow reaction to proceed on ice for one hour. The reacted cells were placed carefully onto RPMI1640 medium (1 ml) containing 1 M sucrose and 10% fetal bovine serum, the medium having been placed in an 1.5-ml microtube and cooled by ice, and subjected to centrifugation (10,000 revolutions, three minutes) by use of a micro-centrifuge. […] The radiation activity of the cells bound to [^3H]PGD2 was measured by use of a liquid scintillation counter. The radiation activity of the cells when measured, in a manner similar to that described above, in the presence of unlabeled PGD2 (concentration: 200 times or more that of [^3H]PGD2) was used as an index of non-specific binding. […] In contrast, the specific binding of [^3H]PGD2 to KB8 or KD36 is observed.
(§2) [^3H]PGD2 binding assay described in Example 3 was carried out in the presence of various unlabeled prostanoids (products of Cayman), and the binding affinity of human CRTH2 to various prostanoids was evaluated.

human CRTH2 [2] = target: T2, human CRTH2 (Homo sapiens, UniProt Q9Y5Y4); assay: [^3H]PGD2 binding assay, cells expressing human CRTH2 (KB8); conditions: for order of the degree of the binding affinity of prostanoids to human CRTH2: [^3H]PGD2 binding in the presence of unlabeled prostanoids, KB8, FIG. 3; for degree of binding affinity of human CRTH2 compared with that of the DP receptor: comparison human CRTH2 vs DP receptor
T2 construct: A transformant into which full-length human CRTH2 cDNA is integrated is deposited as B19 cDNA; expressed in transfected cells
T2 sequence (Q9Y5Y4 1-395): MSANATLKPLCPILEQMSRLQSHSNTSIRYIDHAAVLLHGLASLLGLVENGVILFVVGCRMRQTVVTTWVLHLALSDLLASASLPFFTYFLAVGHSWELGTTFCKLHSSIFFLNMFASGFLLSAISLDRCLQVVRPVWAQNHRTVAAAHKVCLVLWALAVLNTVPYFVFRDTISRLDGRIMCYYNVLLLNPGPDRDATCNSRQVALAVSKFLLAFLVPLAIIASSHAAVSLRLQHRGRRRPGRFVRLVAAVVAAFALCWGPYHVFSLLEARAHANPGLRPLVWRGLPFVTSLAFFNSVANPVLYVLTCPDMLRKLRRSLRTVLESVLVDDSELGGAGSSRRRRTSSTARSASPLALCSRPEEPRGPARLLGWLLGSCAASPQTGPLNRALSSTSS
Description: Human CRTH2 gene expression plasmid pRc/B19 was prepared by means of a method described in detail in Nagata, K. et al., J. Immunol., 162: 1278-1286, 1999 and Japanese Sai-Kohyo (PCT) Patent Publication WO 97/46677. A transformant into which full-length human CRTH2 cDNA is integrated is deposited as B19 cDNA in National Institute of Bioscience and Human-Technology, Agency of Industrial Science and Technology (deposit number: FERM P-15616), and B19 cDNA can be used after approval is obtained from the depositor. When B19 cDNA is digested with restriction enzymes HindIII and XbaI, and is subcloned into the HindIII/XbaI site of plasmid pRc/CMV (product of Invitrogen), the same expression plasmid as the aforementioned pRc/B19 can be prepared. Through electroporation, the pRc/B19 and control plasmid pRc/CMV were genetically introduced into K562 cells, a human erythroblastic leukemia cell strain, and were subjected to selective culture for two to three weeks in the presence of 400 μg/ml of geneticin (product of SIGMA). Among the K562 cells into which the pRc/B19 had been genetically introduced, the survived cells were added to a 96-well microplate (0.3 cells per well), and then cultured for two to three weeks. The proliferated cell clones were subjected to fluorescence staining by use of an anti human CRTH2 antibody (Nagata, K. et al., J. Immunol., 162: 1278-1286, 1999), and clone KB8, in which human CRTH2 was highly expressed, was obtained. The K562 cells into which the control pRc/CMV had been genetically introduced were selected by use of geneticin, and then culture of the resultant cells was continued while polyclones were present (hereinafter the cells will be referred to as “K562/neo”).
as §1, §2

human CRTH2 [3] = target: T2, human CRTH2; assay: Down modulation of human CRTH2 molecules from cell surface, KB8 cells; type: cell-based; conditions: 37° C. for one hour, flow cytometer, FIG. 4
Description: KB8 cells were suspended in RPMI1640 medium containing 10% fetal bovine serum so as to attain a concentration of 10^6 cells/ml, and cultured at 37° C. for one hour in the presence of a test sample. After completion of culturing, the cells were washed twice with HBSS through centrifugation, to thereby remove cell-free part of the sample. Subsequently, the resultant cells were resuspended in HBSS containing 0.5% bovine serum albumin and 0.05% NaN3, and the resultant suspension was subjected to fluorescence staining by use of anti CRTH2 monoclonal antibody HM16 and phycoerythrin-labeled anti rat immunoglobulin antibody. The average fluorescence intensity of the stained cells was measured by use of a flow cytometer (product of Becton Dickinson), and the fluorescence intensity of the cells treated with the sample was compared with that of non-treated cells (control).

K562/neo cells = assay: Intracellular calcium assay, control K562/neo cells; type: cell-based, human; conditions: treatment with PGD2 (0.25-250 nM), Fura-2AM
Description: (§3) Each of KB8 cells, KD36 cells, and K562/neo cells was suspended in RPMI1640 medium containing 10% fetal bovine serum so as to attain a concentration of 5×10^6 cells/ml, and cultured at 37° C. for one hour in the presence of 5 μM of Fura-2AM (product of Dojindo). After completion of culturing, the cells were washed three times with HBSS through centrifugation, to thereby remove free Fura-2AM. Subsequently, the resultant cells were resuspended in HBSS containing 0.1% bovine serum albumin so as to attain a concentration of 10^6 cells/ml. The resultant suspension was placed in a quartz cell (volume: 0.4 ml), and the cell was set in spectrophotometer LS50B (product of PerkinElmer). After a sample was added to the suspension, the time-course change of the ratio of fluorescence intensities (510 nm) at excitation wavelengths of 340 nm and 380 nm was obtained through calculation by use of FL-Winlab software (product of PerkinElmer).

human CRTH2 [4] = target: T2, human CRTH2; assay: Intracellular calcium assay, KB8 cells; type: cell-based; conditions: treatment with PGD2 (some nM), Fura-2AM
Description: as §3

DP receptor [5] = target: T1, DP receptor; assay: Intracellular calcium assay, KD36 cells; type: cell-based; conditions: treatment with PGD2 (some nM), Fura-2AM
Description: as §3

Row | SMILES | order of the degree of the binding affinity of prostanoids to the DP receptor (DP receptor [1]) | order of the degree of the binding affinity of prostanoids to human CRTH2 (human CRTH2 [2]) | down modulation of CRTH2 (average fluorescence intensity vs non-treated control) (human CRTH2 [3]) | degree of binding affinity of human CRTH2 compared with that of the DP receptor (human CRTH2 [2]) | concentration of calcium in the cells (K562/neo cells) | concentration of calcium in the cells (human CRTH2 [4]) | concentration of calcium in the cells (DP receptor [5])
1 | CCCCC[C@H](O)/C=C/[C@H]1OC(O)C[C@H](O)[C@@H]1C/C=C\CCCC(=O)O (stereo partly shown) [TXB2, thromboxane B2] | 15-deoxydelta 12,14-PGJ2≧TXB2≧PGA2 | prostaglandin A2 (PGA2)>>thromboxane B2 (TXB2) | – | – | – | – | –
2 | CCCCC/C=C/C=C1/C(=O)C=CC1C/C=C\CCCC(=O)O (stereo not shown) [15-deoxydelta 12,14-PGJ2] | 13,14-dihydro-15-keto PGD2>15-deoxydelta 12,14-PGJ2≧TXB2 | prostaglandin J2 (PGJ2)>15-deoxydelta 12,14-PGJ2≧prostaglandin E2 (PGE2) | – | – | – | – | –
3 | CCCCCC(=O)CCC1C(=O)CC(O)C1C/C=C\CCCC(=O)O (stereo not shown) [13,14-dihydro-15-keto PGD2] | PGE2>13,14-dihydro-15-keto PGD2>15-deoxydelta 12,14-PGJ2 | PGD2≧13,14-dihydro-15-keto PGD2>>prostaglandin J2 (PGJ2) | induce down modulation of CRTH2 significantly as compared with the control | a great difference exists between human CRTH2 and the DP receptor | – | – | –
4 | CCCCC[C@H](O)/C=C/[C@H]1[C@H](O)CC(=O)[C@@H]1C/C=C\CCCC(=O)O [PGE2, prostaglandin E2] | PGJ2>>PGE2>13,14-dihydro-15-keto PGD2 | 15-deoxydelta 12,14-PGJ2≧prostaglandin E2 (PGE2)=prostaglandin A2 (PGA2) | does not exert such an effect | – | – | – | –
5 | CCCCC[C@H](O)/C=C/[C@H]1C(=O)C=C[C@@H]1C/C=C\CCCC(=O)O [PGJ2, prostaglandin J2] | PGD2=PGJ2>>PGE2 | 13,14-dihydro-15-keto PGD2>>prostaglandin J2 (PGJ2)>15-deoxydelta 12,14-PGJ2 | – | – | – | – | –
6 | CCCCC[C@H](O)/C=C/[C@H]1C=CC(=O)[C@@H]1C/C=C\CCCC(=O)O [PGA2, prostaglandin A2] | TXB2≧PGA2 | prostaglandin E2 (PGE2)=prostaglandin A2 (PGA2)>>thromboxane B2 (TXB2) | – | – | – | – | –
7 | CCCCC[C@H](O)/C=C/[C@H]1C(=O)C[C@H](O)[C@@H]1C/C=C\CCCC(=O)O [PGD2, Prostaglandin D2] | PGD2=PGJ2 | PGD2≧13,14-dihydro-15-keto PGD2 | induce down modulation of CRTH2 significantly as compared with the control | equal to that of the binding affinity of the DP receptor to PGD2 | did not vary significantly | increased considerably | increased considerably
